Here are results for three compounds from article PMC11299587 (ACS infectious diseases, 2024).

Like-named read-outs stand apart in the source and are kept apart here.

Experiment [1] has as its target T1, HscPheRS (human cytosolic phenylalanyl-tRNA synthetase, alpha subunit) (Homo sapiens, UniProt Q9Y285).
T1 sequence (Q9Y285 2-508): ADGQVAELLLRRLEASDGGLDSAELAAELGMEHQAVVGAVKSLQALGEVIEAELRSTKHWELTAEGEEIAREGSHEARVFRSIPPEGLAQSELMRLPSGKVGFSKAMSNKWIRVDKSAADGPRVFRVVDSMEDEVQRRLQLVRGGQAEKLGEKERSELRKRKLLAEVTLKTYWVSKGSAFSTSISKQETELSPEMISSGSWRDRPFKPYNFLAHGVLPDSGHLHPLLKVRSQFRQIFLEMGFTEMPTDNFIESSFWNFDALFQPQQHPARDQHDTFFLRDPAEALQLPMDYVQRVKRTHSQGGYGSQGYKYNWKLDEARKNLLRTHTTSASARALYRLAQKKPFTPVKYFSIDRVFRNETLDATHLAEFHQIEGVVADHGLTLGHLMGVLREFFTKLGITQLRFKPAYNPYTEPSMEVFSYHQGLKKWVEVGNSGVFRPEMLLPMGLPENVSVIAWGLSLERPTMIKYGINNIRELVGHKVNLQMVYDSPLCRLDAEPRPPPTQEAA
T1 sequence (Q9NSD9 1-589 partner): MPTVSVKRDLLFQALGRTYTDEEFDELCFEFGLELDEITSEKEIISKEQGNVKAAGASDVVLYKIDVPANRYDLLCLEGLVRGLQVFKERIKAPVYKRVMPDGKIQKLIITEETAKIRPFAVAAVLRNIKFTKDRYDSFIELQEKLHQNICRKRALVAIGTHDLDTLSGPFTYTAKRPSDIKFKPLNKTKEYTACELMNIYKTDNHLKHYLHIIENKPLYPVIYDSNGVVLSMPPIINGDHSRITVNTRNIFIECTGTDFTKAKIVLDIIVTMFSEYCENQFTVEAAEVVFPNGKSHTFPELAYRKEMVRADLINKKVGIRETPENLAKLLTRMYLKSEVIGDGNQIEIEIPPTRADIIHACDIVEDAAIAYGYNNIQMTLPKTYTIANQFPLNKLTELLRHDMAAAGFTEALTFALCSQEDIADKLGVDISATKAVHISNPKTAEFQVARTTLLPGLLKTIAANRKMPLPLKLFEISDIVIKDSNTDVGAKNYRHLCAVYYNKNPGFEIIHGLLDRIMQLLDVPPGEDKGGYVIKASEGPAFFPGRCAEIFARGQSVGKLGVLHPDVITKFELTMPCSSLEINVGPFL
The experiment can be described thus: malachite green aminoacylation assay with purified enzyme. The format is biochemical.

Experiment [2] concerns the target T2, TgcPheRS (Toxoplasma gondii cytosolic phenylalanyl-tRNA synthetase, alpha subunit) (Toxoplasma gondii, UniProt A0A125YPN6+S8EZ50).
T2 sequence (A0A125YPN6 1-525): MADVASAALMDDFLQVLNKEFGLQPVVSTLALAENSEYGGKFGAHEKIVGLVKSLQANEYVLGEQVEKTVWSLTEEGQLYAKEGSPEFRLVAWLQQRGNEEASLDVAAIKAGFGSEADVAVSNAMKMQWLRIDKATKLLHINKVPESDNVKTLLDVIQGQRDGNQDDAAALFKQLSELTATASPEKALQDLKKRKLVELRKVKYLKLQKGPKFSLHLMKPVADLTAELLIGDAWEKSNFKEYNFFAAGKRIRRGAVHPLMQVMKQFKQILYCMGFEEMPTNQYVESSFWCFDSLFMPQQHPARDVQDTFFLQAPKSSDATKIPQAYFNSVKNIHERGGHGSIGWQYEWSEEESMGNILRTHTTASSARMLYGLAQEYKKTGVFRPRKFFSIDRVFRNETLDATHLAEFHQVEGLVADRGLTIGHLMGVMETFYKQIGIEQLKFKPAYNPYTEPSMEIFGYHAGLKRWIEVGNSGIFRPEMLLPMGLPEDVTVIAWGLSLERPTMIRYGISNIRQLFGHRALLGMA
T2 sequence (S8EZ50 1-675): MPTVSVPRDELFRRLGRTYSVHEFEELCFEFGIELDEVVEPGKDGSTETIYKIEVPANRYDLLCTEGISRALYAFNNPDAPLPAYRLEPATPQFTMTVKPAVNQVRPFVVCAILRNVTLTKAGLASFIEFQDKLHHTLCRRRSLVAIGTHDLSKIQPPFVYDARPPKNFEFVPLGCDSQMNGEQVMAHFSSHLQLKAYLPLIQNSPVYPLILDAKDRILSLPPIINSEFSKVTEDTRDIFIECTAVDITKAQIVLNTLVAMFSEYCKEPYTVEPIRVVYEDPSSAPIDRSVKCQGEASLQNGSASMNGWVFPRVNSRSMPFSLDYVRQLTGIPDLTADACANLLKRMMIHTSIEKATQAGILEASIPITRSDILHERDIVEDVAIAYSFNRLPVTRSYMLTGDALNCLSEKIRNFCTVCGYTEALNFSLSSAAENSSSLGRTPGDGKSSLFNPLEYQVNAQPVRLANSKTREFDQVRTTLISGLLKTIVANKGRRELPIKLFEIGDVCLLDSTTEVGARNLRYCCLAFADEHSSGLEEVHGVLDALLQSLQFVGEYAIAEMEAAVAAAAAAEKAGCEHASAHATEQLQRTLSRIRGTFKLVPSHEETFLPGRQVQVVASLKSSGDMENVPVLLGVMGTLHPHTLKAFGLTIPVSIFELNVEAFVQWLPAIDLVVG
The experiment is described as above. The experiment is classed as biochemical.

Experiment [3] addresses T1, HscPheRS (human cytosolic phenylalanyl-tRNA synthetase, alpha subunit). Described as above. The experiment is classed as biochemical. The following applies: read-out: BRD2108.
The target in experiment [4] is T2, TgcPheRS (Toxoplasma gondii cytosolic phenylalanyl-tRNA synthetase, alpha subunit). The description is as above. The experiment is classed as biochemical. This is another data set of the same source.
In experiment [5] the target is T1, HscPheRS (human cytosolic phenylalanyl-tRNA synthetase, alpha subunit). The description is as above. The following applies: read-out: BRD7929. The experiment is classed as biochemical.
The target of experiment [6] is T2, TgcPheRS (Toxoplasma gondii cytosolic phenylalanyl-tRNA synthetase, alpha subunit). The experiment can be described thus: thermal shift assay. The experiment is classed as binding.

Take `COc1ccc(NC(=O)N2CCCN3CC[C@H](c4ccc(C#CC5=CCCCC5)cc4)[C@@H]3C2)cc1` [mCMY416]: the IC50 in experiment [1] is 3.58 µM; in experiment [2], 240 nM.

Turning to BRD2108, the results for the IC50 in experiment [3] and in experiment [4] were 15.6 µM and 420 nM, respectively.

In the case of `COc1ccc(NC(=O)N2CCCCN3[C@H](CN(C)C)[C@H](c4ccc(C#Cc5ccccc5)cc4)[C@@H]3C2)cc1` [BRD7929], in experiment [5], the IC50 worked out at 18 µM. Further, the BRD7929 in experiment [6] stood at 11.6 °C.
